Measured values taken from patent US10251892B2, “Bicyclic heterocycles as FGFR4 inhibitors” (Incyte Corporation, priority 2015, dated 2019).

Molecular target: FGFR3 enzyme (Homo sapiens (Human), UniProt P22607)
Test: FGFR Enzymatic Assay (peptide phosphorylation, FRET), FGFR3
Format: biochemical
Conditions: IC50 ratio showing FGFR3 selectivity; pre-incubated for 4 hours
Procedure: The inhibitor potency of the exemplified compounds was measured in an enzyme assay that measures peptide phosphorylation using FRET measurements to detect product formation. Inhibitors were serially diluted in DMSO and a volume of 0.5 μL was transferred to the wells of a 384-well plate.
GraphPad prism3 was used to analyze the data.

Sequence of FGFR3 enzyme (P22607 23-806): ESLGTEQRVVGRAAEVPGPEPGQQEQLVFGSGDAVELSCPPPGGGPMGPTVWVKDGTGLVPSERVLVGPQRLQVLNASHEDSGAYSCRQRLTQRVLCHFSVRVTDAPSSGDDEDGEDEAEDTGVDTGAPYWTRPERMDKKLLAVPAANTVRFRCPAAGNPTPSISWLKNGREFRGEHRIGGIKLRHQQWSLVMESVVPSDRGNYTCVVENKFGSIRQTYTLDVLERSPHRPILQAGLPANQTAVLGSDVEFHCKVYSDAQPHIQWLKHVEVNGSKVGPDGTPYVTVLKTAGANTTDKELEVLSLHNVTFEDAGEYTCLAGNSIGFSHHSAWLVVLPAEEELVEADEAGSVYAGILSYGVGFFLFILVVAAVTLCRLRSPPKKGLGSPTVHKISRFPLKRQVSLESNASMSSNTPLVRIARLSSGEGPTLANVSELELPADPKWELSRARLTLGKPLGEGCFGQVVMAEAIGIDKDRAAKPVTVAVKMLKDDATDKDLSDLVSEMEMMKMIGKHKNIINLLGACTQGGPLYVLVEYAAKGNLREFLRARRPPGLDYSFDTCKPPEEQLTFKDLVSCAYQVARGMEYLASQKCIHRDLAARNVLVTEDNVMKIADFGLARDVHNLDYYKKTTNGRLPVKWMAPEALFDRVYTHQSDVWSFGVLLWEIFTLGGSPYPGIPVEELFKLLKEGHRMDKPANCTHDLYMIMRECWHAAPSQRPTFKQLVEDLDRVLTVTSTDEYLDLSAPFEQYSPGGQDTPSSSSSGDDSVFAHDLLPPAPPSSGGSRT

FGFR1/FGFR3 | FGFR4/FGFR3 | Compound
>5 | >10 | CCc1nnc(CN2C(=O)N(c3c(F)c(OC)cc(OC)c3F)Cc3cnc(-c4cn(C)nc4C)cc32)o1 [Example 67, 3-(2,6-difluoro-3,5-dimethoxyphenyl)-7-(1,3-dimethyl-1H-pyrazol-4-yl)-1-((5-ethyl-1,3,4-oxadiazol-2-yl)methyl)-3,4-dihydropyrido[4,3-d]pyrimidin-2(1H)-one]
>1 | >5 | COc1cc(OC)c(F)c(N2Cc3cnc(-c4cn(C)nc4C)cc3N(c3ccc4ncsc4c3)C2=O)c1F [Example 41, 1-(1,3-benzothiazol-6-yl)-3-(2,6-difluoro-3,5-dimethoxyphenyl)-7-(1,3-dimethyl-1H-pyrazol-4-yl)-3,4-dihydropyrido[4,3-d]pyrimidin-2(1H)-one]
>5 | >5 | COc1cc(OC)c(F)c(N2Cc3cnc(-c4cn(C)nc4C)cc3N(Cc3cncnc3)C2=O)c1F [Example 84, 3-(2,6-difluoro-3,5-dimethoxyphenyl)-7-(1,3-dimethyl-1H-pyrazol-4-yl)-1-(pyrimidin-5-ylmethyl)-3,4-dihydropyrido[4,3-d]pyrimidin-2(1H)-one]
>5 | – | CNC(=O)c1ccc(-c2cc3c(cn2)CN(c2c(F)c(OC)cc(OC)c2F)C(=O)C32CC2)cc1 [Example 19, 4-(2′-(2,6-difluoro-3,5-dimethoxyphenyl)-3′-oxo-2′,3′-dihydro-1′H-spiro[cyclopropane-1,4′-[2,7]naphthyridine]-6′-yl)-N-methylbenzamide]
>3 | >3 | COc1cc(OC)c(F)c(N2Cc3cnc(-c4cn(C5CCN(C)C5)nc4C)cc3C3(CC3)C2=O)c1F (stereo not drawn) [Example 163, 2′-(2,6-difluoro-3,5-dimethoxyphenyl)-6′-(3-methyl-1-(1-methylpyrrolidin-3-yl)-1H-pyrazol-4-yl)-1′H-spiro[cyclopropane-1,4′-[2,7]naphthyridin]-3′(2′H)-one]
>3 | >3 | COc1cc(OC)c(F)c(N2Cc3cnc(-c4cnn(CC5CN(C(C)=O)C5)c4)cc3C3(CC3)C2=O)c1F [Example 167, 6′-(1-((1-acetylazetidin-3-yl)methyl)-1H-pyrazol-4-yl)-2′-(2,6-difluoro-3,5-dimethoxyphenyl)-1′H-spiro[cyclopropane-1,4′-[2,7]naphthyridin]-3′(2′H)-one]
>10 | >10 | COc1cc(OC)c(F)c(N2Cc3cnc(-c4cn(C)nc4C)cc3N(c3ccc(C#N)cc3)C2=O)c1F [Example 44, 4-(3-(2,6-difluoro-3,5-dimethoxyphenyl)-7-(1,3-dimethyl-1H-pyrazol-4-yl)-2-oxo-3,4-dihydropyrido[4,3-d]pyrimidin-1(2H)-yl)benzonitrile]
>5 | >10 | COc1cc(OC)c(F)c(N2Cc3cnc(-c4cn(C)nc4C)cc3N(c3cccc(-c4cnnn4C)c3)C2=O)c1F [Example 89, 3-(2,6-difluoro-3,5-dimethoxyphenyl)-7-(1,3-dimethyl-1H-pyrazol-4-yl)-1-(3-(1-methyl-1H-1,2,3-triazol-5-yl)phenyl)-3,4-dihydropyrido[4,3-d]pyrimidin-2(1H)-one]
>3 | >5 | COc1ccc(N2C(=O)N(c3c(F)c(OC)cc(OC)c3F)Cc3cnc(-c4cn(C)nc4C)cc32)cc1 [Example 104, 3-(2,6-difluoro-3,5-dimethoxyphenyl)-7-(1,3-dimethyl-1H-pyrazol-4-yl)-1-(4-methoxyphenyl)-3,4-dihydropyrido[4,3-d]pyrimidin-2(1H)-one]
>5 | – | CNC(=O)c1ccc(-c2cc3c(cn2)CN(c2c(F)c(OC)cc(OC)c2F)C(=O)C32CC2)cn1 [Example 18, 5-(2′-(2,6-difluoro-3,5-dimethoxyphenyl)-3′-oxo-2′,3′-dihydro-1′H-spiro[cyclopropane-1,4′-[2,7]naphthyridine]-6′-yl)-N-methylpicolinamide]
>5 | >5 | COc1cc(OC)c(F)c(N2Cc3cnc(-c4cn(C)nc4C)cc3N(Cc3cc(C(C)C)on3)C2=O)c1F [Example 93, 3-(2,6-difluoro-3,5-dimethoxyphenyl)-7-(1,3-dimethyl-1H-pyrazol-4-yl)-1-((5-isopropylisoxazol-3-yl)methyl)-3,4-dihydropyrido[4,3-d]pyrimidin-2(1H)-one]
>5 | >10 | CCN1C(=O)N(c2c(F)c(OC)cc(OC)c2F)Cc2cnc(-c3ccc(C(=O)NCCO)nc3)cc21 [Example 177, 5-(3-(2,6-difluoro-3,5-dimethoxyphenyl)-1-ethyl-2-oxo-1,2,3,4-tetrahydropyrido[4,3-d]pyrimidin-7-yl)-N-(2-hydroxyethyl)picolinamide]
>5 | >3 | COc1cc(OC)c(F)c(N2Cc3cnc(-c4cnn(C5(C#N)CCC5)c4C)cc3C3(CC3)C2=O)c1F [Example 149, 1-(4-(2′-(2,6-difluoro-3,5-dimethoxyphenyl)-3′-oxo-2′,3′-dihydro-1′H-spiro[cyclopropane-1,4′-[2,7]naphthyridine]-6′-yl)-5-methyl-1H-pyrazol-1-yl)cyclobutanecarbonitrile]
>3 | >5 | COc1cnc(N2C(=O)N(c3c(F)c(OC)cc(OC)c3F)Cc3cnc(-c4cn(C)nc4C)cc32)cn1 [Example 112, 3-(2,6-difluoro-3,5-dimethoxyphenyl)-7-(1,3-dimethyl-1H-pyrazol-4-yl)-1-(5-methoxypyrazin-2-yl)-3,4-dihydropyrido[4,3-d]pyrimidin-2(1H)-one]
>1 | >5 | COc1cc(OC)c(F)c(N2Cc3cnc(-c4cn(C)nc4C)cc3N(CC3CC3)C2=O)c1F [Example 29, 1-(cyclopropylmethyl)-3-(2,6-difluoro-3,5-dimethoxyphenyl)-7-(1,3-dimethyl-1H-pyrazol-4-yl)-3,4-dihydropyrido[4,3-d]pyrimidin-2(1H)-one]
>5 | >3 | COc1cc(OC)c(F)c(N2Cc3cnc(-c4cn(CC#N)nc4C)cc3C3(CC3)C2=O)c1F [Example 153, 2-(4-(2′-(2,6-difluoro-3,5-dimethoxyphenyl)-3′-oxo-2′,3′-dihydro-1′H-spiro[cyclopropane-1,4′-[2,7]naphthyridine]-6′-yl)-3-methyl-1H-pyrazol-1-yl)acetonitrile]
>5 | >10 | COc1cc(OC)c(F)c(N2Cc3cnc(-c4cn(C)nc4C)cc3N(Cc3cccnn3)C2=O)c1F [Example 88, 3-(2,6-difluoro-3,5-dimethoxyphenyl)-7-(1,3-dimethyl-1H-pyrazol-4-yl)-1-(pyridazin-3-ylmethyl)-3,4-dihydropyrido[4,3-d]pyrimidin-2(1H)-one]
>5 | >5 | CCN1C(=O)N(c2c(F)c(OC)cc(OC)c2F)Cc2cnc(-c3ccc(C(C)(C)C#N)nc3)cc21 [Example 26, 2-(5-(3-(2,6-difluoro-3,5-dimethoxyphenyl)-1-ethyl-2-oxo-1,2,3,4-tetrahydropyrido[4,3-d]pyrimidin-7-yl)pyridin-2-yl)-2-methylpropanenitrile]
>5 | >5 | COc1cc(OC)c(F)c(N2Cc3cnc(-c4cn(C)nc4C)cc3N(c3ccc(F)c(C#N)c3)C2=O)c1F [Example 66, 5-(3-(2,6-difluoro-3,5-dimethoxyphenyl)-7-(1,3-dimethyl-1H-pyrazol-4-yl)-2-oxo-3,4-dihydropyrido[4,3-d]pyrimidin-1(2H)-yl)-2-fluorobenzonitrile]
>3 | >10 | CCn1cc(N2C(=O)N(c3c(F)c(OC)cc(OC)c3F)Cc3cnc(-c4cn(C)nc4C)cc32)cn1 [Example 131, 3-(2,6-difluoro-3,5-dimethoxyphenyl)-7-(1,3-dimethyl-1H-pyrazol-4-yl)-1-(1-ethyl-1H-pyrazol-4-yl)-3,4-dihydropyrido[4,3-d]pyrimidin-2(1H)-one]
>10 | >5 | CCN1C(=O)N(c2c(F)c(OC)cc(OC)c2F)Cc2cnc(-c3ccc(C(=O)NC4CC4)nc3)cc21 [Example 176, N-cyclopropyl-5-(3-(2,6-difluoro-3,5-dimethoxyphenyl)-1-ethyl-2-oxo-1,2,3,4-tetrahydropyrido[4,3-d]pyrimidin-7-yl)picolinamide]
>5 | >10 | COc1cc(OC)c(F)c(N2Cc3cnc(-c4cn(C)nc4C)cc3N(Cc3cnn(C)c3)C2=O)c1F [Example 72, 3-(2,6-difluoro-3,5-dimethoxyphenyl)-7-(1,3-dimethyl-1H-pyrazol-4-yl)-1-((1-methyl-1H-pyrazol-4-yl)methyl)-3,4-dihydropyrido[4,3-d]pyrimidin-2(1H)-one]
>5 | >10 | COc1cc(OC)c(F)c(N2Cc3cnc(-c4cn(C)nc4C)cc3N(Cc3ccc(F)cc3)C2=O)c1F [Example 34, 3-(2,6-difluoro-3,5-dimethoxyphenyl)-7-(1,3-dimethyl-1H-pyrazol-4-yl)-1-(4-fluorobenzyl)-3,4-dihydropyrido[4,3-d]pyrimidin-2(1H)-one]
>3 | >5 | CNS(=O)(=O)c1cccc(N2C(=O)N(c3c(F)c(OC)cc(OC)c3F)Cc3cnc(-c4cn(C)nc4C)cc32)c1 [Example 111, 3-(3-(2,6-difluoro-3,5-dimethoxyphenyl)-7-(1,3-dimethyl-1H-pyrazol-4-yl)-2-oxo-3,4-dihydropyrido[4,3-d]pyrimidin-1(2H)-yl)-N-methylbenzenesulfonamide]

Compound | FGFR1/FGFR3 | FGFR4/FGFR3
COc1cc(OC)c(F)c(N2Cc3cnc(-c4cn(C)nc4C)cc3N(C3CCN(S(C)(=O)=O)CC3)C2=O)c1F [Example 71, 3-(2,6-difluoro-3,5-dimethoxyphenyl)-7-(1,3-dimethyl-1H-pyrazol-4-yl)-1-(1-(methylsulfonyl)piperidin-4-yl)-3,4-dihydropyrido[4,3-d]pyrimidin-2(1H)-one] | >5 | >3
